{
  "source": "paper PMC7986153",
  "about": "“A Functional Chemiluminescent Probe for in Vivo Imaging of Natural Killer Cell Activity Against Tumours” (Angewandte Chemie (International Ed. in English), 2021)",
  "target": "T1, hr‐granzyme B (Homo sapiens, UniProt P10144)",
  "T1 construct": "in the absence and presence of active human recombinant (hr)‐granzyme B",
  "T1 sequence (P10144 21-247)": "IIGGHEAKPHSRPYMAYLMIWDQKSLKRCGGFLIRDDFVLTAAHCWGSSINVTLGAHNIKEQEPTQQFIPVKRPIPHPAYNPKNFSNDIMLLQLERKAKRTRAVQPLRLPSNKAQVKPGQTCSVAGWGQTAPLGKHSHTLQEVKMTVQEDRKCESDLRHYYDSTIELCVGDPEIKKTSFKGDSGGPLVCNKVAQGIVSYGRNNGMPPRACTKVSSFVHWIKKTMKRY",
  "assay": "Time-course signal-to-noise ratios after reaction with granzyme B",
  "assay_type": "biochemical",
  "details": "Ac-IEPD-AMC 25 μM, hr-granzyme B 20 nM, aqueous buffer 37 °C, fluorescence 450 nm, over 30 minutes; mean ± SEM, n=6",
  "description": "In vitro characterisation assays. Enzymatic assays were run in a 384-well format in a PCR opaque microplate (Thermo Scientific). All experiments were performed at least in triplicate. Dilutions and reactions using human GZM B and human neutrophil elastase were prepared in 50 mM Tris-HCl and 100 mM NaCl (pH 7.4). GZM A assays were performed in 25 mM HEPES, 0.1% CHAPS and 10 mM DTT (pH 7.5). Dilutions and incubations with CASP8 and CASP9 were prepared in 50 mM HEPES, 100 mM NaCl, 0.1% Triton X-100, 10 mM DTT, 1 mM EDTA and 10% glycerol (pH 7.4). Any other tested biomolecules were prepared in PBS. Proteolytic activity was determined by calculating the fold change in chemiluminescence signal (or fluorescence signal in the case of Ac - IEPD-AMC) over background signal provided by the corresponding dilution of the probes with the enzyme using a spectrophotometer (Synergy H1 Hybrid Reader, BioTek) at 37°C.\nUnless otherwise stated, probes were utilized at a concentration of 100 μM. Enzyme concentration used: 20 nM (except CASP9, which was used at 200 nM) and all other biomolecules were tested at 100 μM. In the case where an inhibitor was used, the enzyme was pre-incubated for 1 h with the inhibitor (100 µM) before addition of probe 1.\nCell culture. […]",
  "note": "Where a SMILES comes first, the peptide text is derived from it. The star is where a group is joined. AMC = Cc1cc(=O)oc2cc(N*)ccc12",
  "data": [
    {"smiles": "CC[C@H](C)[C@H](NC(C)=O)C(=O)N[C@@H](CCC(=O)O)C(=O)N1CCC[C@H]1C(=O)N[C@@H](CC(=O)O)C(=O)Nc1ccc2c(C)cc(=O)oc2c1", "note": "[Ac‐IEPD‐AMC] (Ac-IEPD-{AMC})", "values": [
      {"measurement": "Signal‐to‐noise (S/N) ratio", "value": "under 5"}
    ]}
  ]
}
